According to patent publication US8765713B2, “Method for determination of sensitivity to anti-cancer agent” (Keio University, priority 2009, dated 2014):

Experiments:
HCT116 cells [1] = experiment: Intracellular protein level after drug exposure by SELDI-TOF MS, HCT116; format: cell-based, human; conditions: 4 to 48 hours
Protocol: (§1) Based on the results of (c) above, the drug concentration employed in the exposure test was determined. The 5-FU+L-OHP combination concentration was adjusted to the following four levels: 2 μ[…], and 100 μM+10 μM, the 5-FU concentration (exposure to single agent) was adjusted to 2 μM and 100 μM, and the L-OHP concentration (exposure to single agent) was adjusted to 1 μM and 10 μM. In addition, the exposure test was conducted at a drug-free concentration (control). That is, nine concentrations in total were employed. Drug exposure time was adjusted to the following five periods of time: 0 hour (just before exposure), 4 hours, 12 hours, 24 hours, and 48 hours. After completion of exposure, cell count was performed, and intracellular proteins were extracted. The medium was removed from the dish and washed thrice with ice-cooled PBS. The cells on the dish was collected by scraping with a rubber policeman. The thus-obtained cell suspension was transferred to a 1.5-mL microtube. The cell suspension was centrifuged at 4° C. and 1,200×g for 10 minutes, and the cells were recovered. After removal of the supernatant, a cell lysis buffer (9 mol/L urea, 2% CHAPS, 1 mM DTT, protease-inhibitor cocktail (Sigma)) was added in a volume of 200 μL with respect to 10,000,000 cells. The liquid was subjected to untrasonic treatment under cooling with ice. The thus-treated product was centrifuged at 4° C. and 16,000×g for 20 minutes, and the supernatant was quickly frozen with liquid nitrogen. The frozen product was stored at -80° C. before analysis. An aliquot of the supernatant was subjected to protein quantification (DC Protein Assay Kit, Bio-Rad). The protein sample was mixed with a cell lysis buffer (excluding protease inhibitor), to thereby adjust the protein concentration to 2.5 mg/mL. The liquid was further mixed with a dilution/washing buffer (pH: 4.5, 50 mM sodium acetate buffer) (hereinafter referred to simply as “buffer”), to a protein concentration of 0.5 mg/mL. The thus-prepared sample (100 μL) was applied to spots of a cation-exchange ProteinChip array (CM10, Bio-Rad) which had been conditioned in advance with the same buffer. Incubation was performed for one hour for reaction, and the chip array was washed thrice with the buffer and rinsed twice with milliQ water, followed by drying in air. Energy absorbing molecule (EAM: saturated solution of sinapinic acid in 50% ACN/0.5% TFA) (1.0 μL ([…])) was added to each spot. After the surface of the spot was dried, analysis of the ProteinChip array was performed. […] As an analyzer, ProteinChipTM Reader (Model PCS4000 Personal Edition, Bio-Rad) was used and the analysis was performed under the following conditions: mass range of 0 to 70,000 Da, focus mass of 8,000 Da, energy of 3,000 or 4,000 nJ, and 265 shots/sample. […]

DLD-1 cells [2] = experiment: Intracellular protein level after drug exposure by SELDI-TOF MS, DLD-1; format: cell-based, human; conditions: DLD-1, SELDI-TOF MS, 4 to 48 hours
Protocol: as §1

DLD-1 cells [3] = experiment: MTS assay cell viability after drug exposure, DLD-1
Protocol: (§2) Two human colorectal cancer cell lines (HCT116 and DLD-1) were obtained from ECACC. Cell culturing was performed by means of a φ000 mm/Tissue Culture Dish (IWAKI) with a medium (D-MEM, 2 mM glutamine, 10% fetal bovine serum) at 37° C. under 5% CO2.
(§3) Two colorectal cancer cell lines (HCT116 and DLD-1) were exposed to a drug, and 24 hours and 48 hours after drug exposure, cell viability was determined by means of an MTS assay (CellTiter96™AQueous One Solution Cell Proliferation Assay, Promega). Drug exposure conditions were as follows. 5-FU (single agent) was used at the following 11 concentrations: control (0 μM), 0.001 μM, 0.01 μM, 0.1 μM, 1 μM, 3 μM, 10 μM, 30 μM, 100 μM, 1,000 μM, and 10,000 μM. L-OHP (single agent) was used at the following 11 concentrations; control (0 μM), 0.001 μM, 0.01 μM, 0.1 μM, 0.3 μM, 1 μM, 3 μM, 10 μM, 30 μM, 100 μM, and 1,000 μM. […]
(§4) Sensitivity analysis was performed from viability data calculated from MTS assay results. The presence or absence of combined effect was determined through comparison of viability obtained by exposure to a combination with that obtained by exposure to a single agent at the same concentration as employed at the exposure to the combination.

HCT116 cells [4] = experiment: MTS assay cell viability after drug exposure, HCT116
Protocol: as §2, §3, §4

| SMILES | levels of proteins A to C and G to K after exposure (HCT116 cells [1]) | levels of proteins D and M after exposure (HCT116 cells [1]) | levels of proteins A to C and G to K after exposure (DLD-1 cells [2]) | levels of proteins D and M after exposure (DLD-1 cells [2]) | cell viability (DLD-1 cells [3]; DLD-1, 1 μM L-OHP, 48 hours) | cell viability (HCT116 cells [4]; HCT116, 1 μM L-OHP, 48 hours) | levels of proteins A to C, F, and H to K after exposure (HCT116 cells [1]) | levels of proteins A to C, F, and H to K after exposure (DLD-1 cells [2]) | viability at 100 µM (DLD-1 cells [3]; Homo sapiens, DLD-1, 48 h, read-out: cell viability) [%] | viability at 100 µM (HCT116 cells [4]; Homo sapiens, HCT-116, 48 h, read-out: cell viability) [%] |
| --- | --- | --- | --- | --- | --- | --- | --- | --- | --- | --- |
| O=C1[O][Pt]2([NH][C@@H]3CCCC[C@H]3[NH]2)[O]C1=O [L-OHP, (SP-4-2)-[(1R,2R)-cyclohexane-1,2-diamine-κN,κN′][ethanedioato(2-)-κO^1,κO^2]platinum] | no significant difference | decrease | increase | no significant difference | about 82% | about 37% | – | – | – | – |
| O=c1[nH]cc(F)c(=O)[nH]1 [5-FU, Fluorouracil] | – | decrease | – | no significant difference | – | – | no significant difference | increase | ~49 | ~24 |
